#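 Method: 48-hour compound exposure of cells in 96-well plates, five concentrations, linear interpolation of endpoints. At the GI50, growth is halved. TGI marks complete inhibition of growth.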
# Tests used:
# Assay in all cases: growth of human tumour cells (NCI), 48 h
# KM12 colon = tested on: KM12 colon
# NCI-H23 lung = tested on: NCI-H23 lung
# MOLT-4 leukemia = tested on: MOLT-4 leukemia
# PC-3 prostate = tested on: PC-3 prostate
# HOP-62 NSCLC = tested on: HOP-62 NSCLC
# CAKI-1 renal = tested on: CAKI-1 renal
# SF-295 CNS = tested on: SF-295 CNS
# SF-268 CNS = tested on: SF-268 CNS
# RPMI-8226 leukemia = tested on: RPMI-8226 leukemia
# OVCAR-3 ovarian = tested on: OVCAR-3 ovarian
# SK-OV-3 ovarian = tested on: SK-OV-3 ovarian
# OVCAR-5 ovarian = tested on: OVCAR-5 ovarian
# A498 renal = tested on: A498 renal
# RXF 393 renal = tested on: RXF 393 renal
# OVCAR-4 ovarian = tested on: OVCAR-4 ovarian
# SNB-19 CNS = tested on: SNB-19 CNS
# SR leukemia = tested on: SR leukemia
# SK-MEL-5 melanoma = tested on: SK-MEL-5 melanoma
# MDA-MB-468 breast = tested on: MDA-MB-468 breast
# M14 melanoma = tested on: M14 melanoma
# HL-60(TB) leukemia = tested on: HL-60(TB) leukemia
# ACHN renal = tested on: ACHN renal
# SF-539 CNS = tested on: SF-539 CNS
# SNB-75 CNS = tested on: SNB-75 CNS
# NCI-H522 lung = tested on: NCI-H522 lung
# K-562 leukemia = tested on: K-562 leukemia
# HCC-2998 colon = tested on: HCC-2998 colon
# LOX IMVI melanoma = tested on: LOX IMVI melanoma
# CCRF-CEM leukemia = tested on: CCRF-CEM leukemia
# HCT-15 colon = tested on: HCT-15 colon
# MDA-MB-435 = tested on: MDA-MB-435
# HOP-92 NSCLC = tested on: HOP-92 NSCLC
# DU-145 prostate = tested on: DU-145 prostate
# UO-31 renal = tested on: UO-31 renal
# SW-620 colon = tested on: SW-620 colon
# OVCAR-8 ovarian = tested on: OVCAR-8 ovarian
# MALME-3M melanoma = tested on: MALME-3M melanoma
# UACC-257 melanoma = tested on: UACC-257 melanoma
# HT29 colon = tested on: HT29 colon
# T-47D breast = tested on: T-47D breast
# BT-549 breast = tested on: BT-549 breast
# 786-0 renal = tested on: 786-0 renal
# MDA-MB-231 breast = tested on: MDA-MB-231 breast
# COLO 205 colon = tested on: COLO 205 colon
# U251 CNS = tested on: U251 CNS
# EKVX NSCLC = tested on: EKVX NSCLC
# HCT-116 colon = tested on: HCT-116 colon
# SN12C renal = tested on: SN12C renal
# NCI-H226 lung = tested on: NCI-H226 lung
# A549 NSCLC = tested on: A549 NSCLC
# TK-10 renal = tested on: TK-10 renal
# MCF7 breast = tested on: MCF7 breast
# IGROV1 ovarian = tested on: IGROV1 ovarian
# SK-MEL-2 melanoma = tested on: SK-MEL-2 melanoma
# NCI-H460 lung = tested on: NCI-H460 lung
# SK-MEL-28 melanoma = tested on: SK-MEL-28 melanoma
# UACC-62 melanoma = tested on: UACC-62 melanoma
# HS 578T breast = tested on: HS 578T breast
structure (smiles),measurement,setting,value
COc1cc(CNC(=O)/C=C/c2ccc3c(c2)OCO3)ccc1OCc1cn(-c2cccc(C(F)(F)F)c2)nn1,GI50,KM12 colon,15.5 µM
same,TGI,KM12 colon,43 µM
same,GI50,NCI-H23 lung,10.5 µM
same,TGI,NCI-H23 lung,23.9 µM
same,GI50,MOLT-4 leukemia,10.1 µM
same,TGI,MOLT-4 leukemia,> 100 µM
same,GI50,PC-3 prostate,13.4 µM
same,TGI,PC-3 prostate,29.3 µM
same,GI50,HOP-62 NSCLC,7.29 µM
same,TGI,HOP-62 NSCLC,26 µM
same,GI50,CAKI-1 renal,5.39 µM
same,TGI,CAKI-1 renal,18.5 µM
same,GI50,SF-295 CNS,4.84 µM
same,TGI,SF-295 CNS,17.8 µM
same,GI50,SF-268 CNS,12 µM
same,TGI,SF-268 CNS,34.8 µM
same,GI50,RPMI-8226 leukemia,18.5 µM
same,TGI,RPMI-8226 leukemia,> 100 µM
same,GI50,OVCAR-3 ovarian,3.31 µM
same,TGI,OVCAR-3 ovarian,11.6 µM
same,GI50,SK-OV-3 ovarian,16.3 µM
same,TGI,SK-OV-3 ovarian,36.5 µM
same,GI50,OVCAR-5 ovarian,14.5 µM
same,TGI,OVCAR-5 ovarian,31.8 µM
same,GI50,A498 renal,5.32 µM
same,TGI,A498 renal,19.1 µM
same,GI50,RXF 393 renal,2930 nM
same,TGI,RXF 393 renal,9.87 µM
same,GI50,OVCAR-4 ovarian,2900 nM
same,TGI,OVCAR-4 ovarian,10.3 µM
same,GI50,SNB-19 CNS,13.2 µM
same,TGI,SNB-19 CNS,27.9 µM
same,GI50,SR leukemia,21.3 µM
same,TGI,SR leukemia,> 100 µM
same,GI50,SK-MEL-5 melanoma,4.68 µM
same,TGI,SK-MEL-5 melanoma,16.4 µM
same,GI50,MDA-MB-468 breast,10 µM
same,TGI,MDA-MB-468 breast,22.8 µM
same,GI50,M14 melanoma,10.4 µM
same,TGI,M14 melanoma,23.3 µM
same,GI50,HL-60(TB) leukemia,23.6 µM
same,TGI,HL-60(TB) leukemia,> 100 µM
same,GI50,ACHN renal,5.24 µM
same,TGI,ACHN renal,18.5 µM
same,GI50,SF-539 CNS,3.54 µM
same,TGI,SF-539 CNS,12.7 µM
same,GI50,SNB-75 CNS,1620 nM
same,TGI,SNB-75 CNS,5.37 µM
same,GI50,NCI-H522 lung,9.78 µM
same,TGI,NCI-H522 lung,23.7 µM
same,GI50,K-562 leukemia,17.5 µM
same,TGI,K-562 leukemia,> 100 µM
same,GI50,HCC-2998 colon,10.1 µM
same,TGI,HCC-2998 colon,23.7 µM
same,GI50,LOX IMVI melanoma,4.75 µM
same,TGI,LOX IMVI melanoma,19 µM
same,GI50,CCRF-CEM leukemia,32.1 µM
same,TGI,CCRF-CEM leukemia,> 100 µM
same,GI50,HCT-15 colon,5.19 µM
same,TGI,HCT-15 colon,26.6 µM
same,GI50,MDA-MB-435,8.25 µM
same,TGI,MDA-MB-435,23.2 µM
same,GI50,HOP-92 NSCLC,2610 nM
same,TGI,HOP-92 NSCLC,8.28 µM
same,GI50,DU-145 prostate,10.7 µM
same,TGI,DU-145 prostate,28.4 µM
same,GI50,UO-31 renal,2600 nM
same,TGI,UO-31 renal,10.1 µM
same,GI50,SW-620 colon,5.86 µM
same,TGI,SW-620 colon,22.5 µM
same,GI50,OVCAR-8 ovarian,3.91 µM
same,TGI,OVCAR-8 ovarian,15.4 µM
same,GI50,MALME-3M melanoma,2440 nM
same,TGI,MALME-3M melanoma,9.61 µM
same,GI50,UACC-257 melanoma,10.8 µM
same,TGI,UACC-257 melanoma,25.4 µM
same,GI50,HT29 colon,14.9 µM
same,TGI,HT29 colon,36.1 µM
same,GI50,T-47D breast,3.27 µM
same,TGI,T-47D breast,26.6 µM
same,GI50,BT-549 breast,4.83 µM
same,TGI,BT-549 breast,19.3 µM
same,GI50,786-0 renal,6.2 µM
same,TGI,786-0 renal,19.2 µM
same,GI50,MDA-MB-231 breast,4.58 µM
same,TGI,MDA-MB-231 breast,17.1 µM
same,GI50,COLO 205 colon,10.4 µM
same,TGI,COLO 205 colon,25 µM
same,GI50,U251 CNS,4.5 µM
same,TGI,U251 CNS,17.6 µM
same,GI50,EKVX NSCLC,13.1 µM
same,TGI,EKVX NSCLC,29.5 µM
same,GI50,HCT-116 colon,3.83 µM
same,TGI,HCT-116 colon,14.9 µM
same,GI50,SN12C renal,9.04 µM
same,TGI,SN12C renal,27.6 µM
same,GI50,NCI-H226 lung,3.38 µM
same,TGI,NCI-H226 lung,14.7 µM
same,GI50,A549 NSCLC,3.71 µM
same,TGI,A549 NSCLC,15.9 µM
same,GI50,TK-10 renal,13.5 µM
same,TGI,TK-10 renal,32.2 µM
same,GI50,MCF7 breast,4.23 µM
same,TGI,MCF7 breast,22 µM
same,GI50,IGROV1 ovarian,15.3 µM
same,TGI,IGROV1 ovarian,32.7 µM
same,GI50,SK-MEL-2 melanoma,10.1 µM
same,TGI,SK-MEL-2 melanoma,22.8 µM
same,GI50,NCI-H460 lung,3.28 µM
same,TGI,NCI-H460 lung,11.6 µM
same,GI50,SK-MEL-28 melanoma,8.84 µM
same,TGI,SK-MEL-28 melanoma,21.7 µM
same,GI50,UACC-62 melanoma,11 µM
same,TGI,UACC-62 melanoma,23.4 µM
same,GI50,HS 578T breast,4.39 µM
same,TGI,HS 578T breast,24.8 µM

# Source: PubChem BioAssay (NCI)
